Data set [1] has as its system SN DA neurons. The data set is classed as cell-based, mouse.
For data set [2] the following is noted: Parkinson Study, 2013; cited from earlier work.
For data set [3], the system named is SN DA neurons. The note with it: cited from earlier work.
Data set [4] concerns SN DA neurons. Put plainly: Dopamine auto-inhibition of SN DA neuron pacemaker activity, patch-clamp recordings in mouse brain slices. It is filed as cell-based. The note with it: isradipine 300nM; dopamine 100 µM.
Data set [5] relates to SN DA neurons. The conditions noted are these: neurotoxin PD-mouse models; pharmacological L-type calcium channel inhibition (Ilijic et al., 2011; Ortner et al., 2017); cited from earlier work.
The test system of data set [6] is SN DA neurons. The data set is classed as cell-based, mouse. The source holds these as a separate data set.
In data set [7] the target is T1, voltage-sensitive A-type Kv4.3 K+ channels (Homo sapiens, UniProt Q9UK17).
T1 sequence (Q9UK17 1-655): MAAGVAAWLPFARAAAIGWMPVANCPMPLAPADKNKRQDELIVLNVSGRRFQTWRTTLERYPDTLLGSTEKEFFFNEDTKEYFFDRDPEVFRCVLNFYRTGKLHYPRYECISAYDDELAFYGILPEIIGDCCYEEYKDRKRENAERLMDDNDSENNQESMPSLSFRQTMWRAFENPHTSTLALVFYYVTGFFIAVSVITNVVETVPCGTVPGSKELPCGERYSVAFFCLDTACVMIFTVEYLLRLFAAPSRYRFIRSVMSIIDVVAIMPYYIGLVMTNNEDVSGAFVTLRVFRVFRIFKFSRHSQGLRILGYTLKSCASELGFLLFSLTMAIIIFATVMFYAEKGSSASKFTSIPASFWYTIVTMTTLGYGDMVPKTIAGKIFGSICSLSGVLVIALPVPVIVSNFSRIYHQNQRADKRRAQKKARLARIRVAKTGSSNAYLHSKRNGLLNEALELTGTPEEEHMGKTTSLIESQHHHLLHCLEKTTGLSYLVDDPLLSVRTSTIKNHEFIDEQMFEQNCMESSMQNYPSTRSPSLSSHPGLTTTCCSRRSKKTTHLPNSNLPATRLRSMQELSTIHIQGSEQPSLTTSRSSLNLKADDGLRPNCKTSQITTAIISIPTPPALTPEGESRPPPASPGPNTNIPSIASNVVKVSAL
The note with it: Kimm & Bean 2014; cited from earlier work.

Like-named read-outs stand apart in the source and are kept apart here.

Turning to ω-conotoxin MVIIC [[…]-conotoxin MVIIC], in the data set with SN DA neurons [1], the “sensitized dopamine-autoinhibition of SN DA neurons” value is “did not substantially alter”.
Consider `COC(=O)C1=C(C)NC(C)=C(C(=O)OC(C)C)C1c1cccc2nonc12` (stereo not drawn) [isradipine], for which the maximal tolerable dosis in data set [2] is given as 10 mg/day. Moreover, in the data set on SN DA neurons [3] (cell body of WT SN DA neurons, in the presence of isradipine (Ortner et al., 2017)), the “somatic activity-dependent Ca^2+ oscillations” value is listed as “not significantly affected”. The “sensitivity of activity-dependent Ca^2+ oscillations in SN DA neurons to the blocker” value in the data set with SN DA neurons [3] (distal dendrites versus cell-bodies (Guzman et al., 2010; Ortner et al.)) was “only in distal dendrites but not in the cell-bodies”. For the same compound, the “sensitized dopamine-autoinhibition of SN DA neurons” value in the data set with SN DA neurons [4] is reported as “did not substantially alter”. Further, in the data set with SN DA neurons [5], the “SN DA neuroprotection” value is “inconclusive findings”.
On to SNX-482, for which the “action potential-induced somatic Ca^2+ transients” value in the data set with SN DA neurons [6] is on record as “significantly reduced”. Further, the “D2-AR responses of adult SN DA neurons (dopamine-autoinhibition)” value in the data set with SN DA neurons [1] was “desensitized D2-AR responses”. Further, the “affinity of inhibition of A-type Kv4.3 K+ channels” value in data set [7] is given as “high nanomolar affinity”.

The record behind these values is EP3638283B1, “ANTAGONISTS OF CAV2.3 R-TYPE CALCIUM CHANNELS FOR THE TREATMENT OF NEURODEGENERATIVE DISEASES” (Lario Therapeutics Ltd., priority 2017, dated 2018).
